Measurements taken from patent US20090012148A1, “REDUCING CELLULAR CHOLESTEROL LEVELS AND/OR TREATING OR PREVENTING PHOSPHOLIPIDOSIS” (priority 2005, published 2009).

Experiments:
Assay type in all cases: cell-based, Chinese hamster
CT60 cells [1] = assay: Filipin binding assay, average filipin intensity and staining pattern; conditions: for Average Filipin Assay @ 10 μM dose Fraction of Control: compounds from secondary library
Method: We developed assays for correction of the NPC phenotype in CHO cell lines using filipin, which binds to non-esterified cholesterol and has been used to visualize the free cholesterol content in NPC cells. The initial screens were carried out in CT60 cells, which express a mutated hamster NPC1 protein and a gain of function mutation in SCAP (42). These cells cannot traffic LDL-derived cholesterol out of late endosomes, and large amounts of cholesterol accumulate in LSO compartments. FIGS. 1A-B show images of filipin staining in a control CHO cell line, TRVb1 (45) (FIG. 1A) and in CT60 cells (FIG. 1B). It can be seen that the CT60 cells show much more filipin staining than control cells and that the fluorescence in CT60 cells is concentrated in peri-nuclear organelles.
For screening, images were acquired using a Discovery-1 automated microscopy system with a 10× objective and corrected for background and shading as described in Methods. Two thresholds were set for filipin staining, a low threshold to include all cell areas, and a high threshold for the strong filipin staining in the peri-nuclear LSOs. The threshold values were set for each plate from analysis of 64 images in 32 wells of untreated CT60 cells. […] In developing the low threshold, we compared the outlines based on the thresholded cell images with transmitted light images, and the thresholds provided good agreement with the transmitted light cell boundaries.
As a simple measure of the intensity of filipin staining, we measured the filipin intensity per pixel above the threshold. The conditions of filipin labeling (time and concentration) were adjusted to optimize the discrimination between the CT60 cells and control TRVb1 cells. […] The quality of the assay for screening is expressed in terms of a statistical parameter Z′(46):
Using the above screening technique, we screened a library of 14,956 compounds added to cells for 16 hours at a final concentration of 10 μM, using a single well for each compound. Prior to application of the compounds, cells were grown in normal tissue culture medium containing 10% FBS, so the LSOs were filled with cholesterol (FIG. 1B). The cells were then imaged and analyzed using the average filipin intensity assay and the LSO compartment assay. In general, the two analyses identified similar compounds that reduced the filipin labeling.
Compound addition: The library compounds were formatted for screening in the Rockefeller University High Throughput Screening Facility. Cells were treated with the compounds from the chemical library one day after plating. We added […] of each compound (5 mM stock in DMSO) to 25 μl of screening Medium S composed of medium A supplemented with 1% FBS and 20 mM 4-(2-hydroxyethyl)-1-pipiperazine ethane sulphonic acid (HEPES) in Falcon 384-well V-bottomed polypropylene plates using a Packard MiniTrak™ robotic liquid handling system. To obtain ˜10 μM final concentration, 23 μl of the premixed compounds were dispensed into the plates containing cells and […] of culture medium A. For primary screening, 352 test compounds were added to each plate, and the remaining 32 wells were used as a control with only DMSO added. All plates were incubated with compounds for 16 h at 37° C. Plates were then washed three times with phosphate buffered saline pH 7.4 (PBS) using a Bio-Tek Elx405 plate washer (Bio-Tek Instruments Inc., Winooski, Vt.). For each wash cycle, […] of PBS was dispensed followed by aspiration with a residual volume of 16 μl per well. Finally, cells were fixed with 1.5% PFA in PBS for 20 min at room temperature, followed by 3 more washes with PBS.
Fluorescence labeling. To the fixed cells, filipin was added at a final concentration of 50 μg/ml in PBS for 45 m at room temperature to label free cholesterol. Cells were finally washed three times with PBS, and images were acquired immediately after labeling. […]

CT60 cells [2] = assay: Gas chromatography cholesterol assay
Method: The cholesterol lowering effect of the 14 hit compounds identified by filipin labeling was measured by an alternative chemical method that involved GC separation of solvent-extracted cellular lipids (43). CT60 cells were treated with compounds at 10 μM under the same conditions as in the screening assays. Since the GC assay estimates FC content per cell, the values are compared to the average filipin intensity assay (Table 1).
CT60 or CT43 cells were plated on day 1 in 6-well plates. Hit compounds were added to the cells at 10 μM concentration. Cells were incubated for 24 h. Cellular lipids were extracted with hexane: iso-propyl alcohol (3:2 v/v). The lipid extracts were dried and re-suspended in hexane followed by separation on gas chromatograph using β-sitosterol as an internal standard.
Procedure: CT60 cells were plated in 6-well plates in Ham's F-12/1.176 g/L sodium bicarbonate/2 g/L glucose/10% FBS. Following 24 h incubation, cells were treated with 10 μM of each compounds, medium being replaced with Ham's F-12/1.176 g/L sodium bicarbonate/2 g/L glucose/5.5% FBS/20 mM HEPES. The change of the medium in the wells was performed to have experimental conditions similar to those used for the screening once chemical compounds were added to the cells. After 18 h treatment with compounds, cells were washed twice with Hank's balanced salt solutions (HBSS). Cellular lipids were extracted with hexane/isopropyl alcohol (3:2 v/v) (43) dried and resuspended in hexane followed by separation on a gas chromatograph (GC) using following conditions. A Hewlett Packard GC model HP 5890 series II (Palo Alto, Calif.) equipped with a flame ionization detector, split-splitless injector, and 15 m×0.53 mm HP-5 capillary column coated with […] film thickness of 5% phenyl methyl siloxane was used to separate free cholesterol. The injection temperature was maintained at 255° C. and oven temperature was held isothermally at 260° C. using helium as a mobile phase at 30 mL/min flow rate. The free cholesterol (FC) was quantified using beta-sitosterol as internal standard to correct for lipid losses during extraction.

CT60 cells [3] = assay: DiI-LDL uptake; conditions: DiI-LDL 6 μg/ml, compounds 10 μM, 20 hours, ±SEM
Method: CT60 cells were grown to 70% confluency in 96 well special optics plates (Corning, Inc., Corning, N.Y.). After 24 hours, cells were incubated with DiI-LDL (6 μg/ml) and hit compounds (10 μM) in screening medium supplemented with 20 mM HEPES. Each compound was added to 8 wells and an equivalent amount of DMSO with DiI-LDL was added to control wells. After 20 h, cells were washed three times with PBS, fixed with 1.5% PFA for 20 min, and stained with 50 μg/ml filipin for 45 min. Images were acquired using the Discovery-1 automatic fluorescence microscope at 20× magnification. DiI-LDL images were acquired using 535 nm/40 nm excitation filter and 610 nm/60 nm band pass with a Chroma 51001bs DiChroic filter. Filipin images were acquired as described above. Images were acquired for 4 sites per well, yielding 32 images per compound. The DiI-LDL images were background and shade corrected as described above. A low threshold was set to define the cell area based on filipin images. Finally, the average DiI-LDL intensity was measured per cell area.
Cells were incubated with DiI-LDL (6 μg/ml) in the presence of compounds (10 μM) for 20 hours. The intensity per unit cell area was measured as described in Methods. Values are normalized to the intensity per cell area for control (solvent-treated) cells. Values are based on averages from 32 images from 8 wells for each condition. ±SEM.

CCOc1cccc2cc(-c3csc(Nc4cccc(C(F)(F)F)c4)n3)c(=O)oc12 [Compound 1-a-14]
Average filipin intensity Fraction of control (CT60 cells [1]; 10 μM, 14 hit compounds from primary library): 1.24 ± 0.04 Fraction of control
μg FC/μg Protein by GC Fraction of control (CT60 cells [2]; 10 μM, FC = free cholesterol): 1.44 ± 0.16 Fraction of control

CCN(CC)c1ccc(C=C2SC(=S)N(c3ccc(OC)cc3)C2=O)cc1 [Compound 2-a-3]
Average Filipin Assay @ 10 μM dose Fraction of Control (CT60 cells [1]): 0.75 ± 0.01 Fraction of Control
μg FC/μg Protein (GC) @ 10 μM dose Fraction of Control (CT60 cells [2]): 0.81 ± 0.03 Fraction of Control
DiI Intensity/cell area Fraction of control (CT60 cells [3]): 0.62 ± 0.01 Fraction of control

COc1ccccc1Nc1nc(Nc2ccccc2OC)nc(Nc2ccccc2OC)n1 [Compound 2-a-9]
Average Filipin Assay @ 10 μM dose Fraction of Control (CT60 cells [1]): 0.74 ± 0.01 Fraction of Control
μg FC/μg Protein (GC) @ 10 μM dose Fraction of Control (CT60 cells [2]): 0.75 ± 0.04 Fraction of Control
DiI Intensity/cell area Fraction of control (CT60 cells [3]): 0.85 ± 0.01 Fraction of control

FC(F)(F)COc1nc(NN=Cc2cccc(I)c2)nc(N(c2ccccc2)c2ccccc2)n1 [Compound 2-a-12]
Average Filipin Assay @ 10 μM dose Fraction of Control (CT60 cells [1]): 0.87 ± 0.01 Fraction of Control
DiI Intensity/cell area Fraction of control (CT60 cells [3]): 0.72 ± 0.01 Fraction of control

O=[N+]([O-])c1cccc(C=NNc2nc(Nc3cccc4ccccc34)nc(N(c3ccccc3)c3ccccc3)n2)c1 [Compound 2-a-13]
Average Filipin Assay @ 10 μM dose Fraction of Control (CT60 cells [1]): 0.75 ± 0.02 Fraction of Control
μg FC/μg Protein (GC) @ 10 μM dose Fraction of Control (CT60 cells [2]): 0.79 ± 0.04 Fraction of Control
DiI Intensity/cell area Fraction of control (CT60 cells [3]): 0.72 ± 0.01 Fraction of control

C=CCN1C(=O)C(=Cc2cc(C)n(-c3ccccc3)c2C)C(C(=O)OC)=C1C [Compound 2-a-15]
Average Filipin Assay @ 10 μM dose Fraction of Control (CT60 cells [1]): 0.79 ± 0.01 Fraction of Control
μg FC/μg Protein (GC) @ 10 μM dose Fraction of Control (CT60 cells [2]): 0.89 ± 0.03 Fraction of Control
DiI Intensity/cell area Fraction of control (CT60 cells [3]): 1.00 ± 0.01 Fraction of control
